From PMC9965125, “New NSAID Conjugates as Potent and Selective COX-2 Inhibitors: Synthesis, Molecular Modeling and Biological Investigation” (Molecules, 2023)
Several values for one entry are separate records, joined by “and”; a condition that tells them apart may be missing. Identical values can stand only once.

Legend:
IL-6 mRNA = conditions: 40 μg/mL; in comparison to LPS-stimulated cells only
Protocol: (§1) For this purpose, the mRNA levels of IL-6, TNF-α, and iNOS were measured using real-time qPCR (RT-qPCR).
(§2) Treatment of LPS-stimulated RAW264.7 macrophages was done with 40 µg/mL of the isolated
(§3) Evaluation of inflammatory mRNA expression levels
(§4) Inflammatory mRNA expression levels were evaluated using RT-qPCR (Applied Biosystems, CA, USA). Total RNA was extracted by lysing RAW264.7 cells using Qiazol Lysis Reagent. The extracted RNA was used to synthesize cDNA using RevertAid First Strand cDNA synthesis kit according to manufacturer’s protocol. The cDNA was then added with forward and reverse
(§5) primers, nuclease free water and maxima SYBR green mix (Thermo Fisher Scientific, MA, USA).
(§6) The inflammation-related genes of mRNA expression levels are as follows: IL-6, TNF-α, and
(§7) iNOS. All expression was normalized to GAPDH (endogenous control) and relative fold mRNA
(§8) expression levels were calculated using the comparative 2 −ΔΔCT method. The PCR reaction consists
(§9) of initiation stage at 95 °C for 10 min, after that 40 PCR cycles of d enaturation stage for 15 s at 95
(§10) °C and annealing and extension for 1 min at 60 °C.

[1] = test system: LPS-stimulated RAW264.7 macrophages; experiment: NO production of LPS-induced RAW264.7 (Griess method); format: cell-based; conditions: 40 μg/mL; LPS 10 ng/mL; LPS only 22 μM, baseline 12.8 μM
hot plate latency = experiment: hot plate assay (central analgesic); format: in vivo, mice; conditions: 10 mg/kg indomethacin mol equivalent i.p.; for Latency Period ± SE: cutoff 15 sec
Protocol: The % potency was calculated by equ. (4) (Table 2). […]
% Potency = % protection of the tested compound x 100 ……. (4) […]
Central analgesic (hot plate) testing
The standard hot plate technique was undertaken by in vivo standard hot plate test [ 1,2]. […]
by placing them on a hot plate maintained at 55 ± 1 °C, 30 min. […]
suspended in sterile/distilled water by the ai d of two drops of Tween 80, and recording the reaction time in seconds for forepaw licking or jumping. The control group animals were given sterile/distilled water only with few drops of Tween 80. The maximum cutoff time was chosen as 15 sec. to prevent tissue damage. Response latencies were measured 30, 60, 90 and 120 min. after the application. The % protection was calculated by equ. ( 5) where, T1, T0 are the latency time mean of the tested compound and control group, respectively (Table 3).

[2] = test system: acetic acid-induced abdominal writhing; experiment: acetic acid-induced abdominal writhing assay (peripheral analgesic); format: in vivo, mice; conditions: 10 mg/kg indomethacin mol equivalent i.p.
Protocol: Peripheral analgesic testing
Peripheral analgesic activity was measured by the standard acetic acid-induced writhing […]
One hour after intraperitoneally (i,p.) administration of 10 mg kg−1 (mice body weight) […]
distilled/sterile water by the aid of two drops of Tween 80, each mouse was injected with 0.1 ml of 1% acetic acid solution i.p. The control group animals were given sterile/distilled water only with few drops of Tween 80. Starting 5 min after the acetic acid injection, the number of muscular contractions in each mouse was counted for 30 min. A significant reduction in the number of writhing by any test compound as compared to control animals was considered as a positive analgesic response. Percentage protection was calculated according to equ. (3), where n stands for the average number of writhing in the control group and n' is the average number of writhing in the treated group. The % potency was calculated by equ. (4) (Table 2).
% Inhibition/protection = n−n′ x100 … . (3)

iNOS mRNA = conditions: 40 μg/mL; in comparison to LPS-stimulated cells only
Protocol: as §1, §2, §3, §4, §5, §6, §7, §8, §9, §10

gastric mucosa = conditions: both, albino, mouse, in vivo, 3 days
Protocol: The ulcerogenic liability was determined in albino mice obeying the standard method.
Animals of either sex (pregnant females were excluded) weighing 20 –25 g were divided into 8 groups of 6 animals each. The animals fasted 18 h before drug administration.
80 administered orally for three successive days to fasted animals at a dose of 10 mg kg-1 (animal […]
The control group animals were given water only with few drops of Tween 80. The animals were sacrificed by cervical dislocation and the stomach was removed, opened along the greater curvature and rinsed with saline. The gastric mucosa was examined with a magnifying lens (10x) for the presence of lesions and ero sions. The ulcer index was calculated (Table 4) and the degree of ulcerogenic effect was expressed in terms of.
1. The percentage incidence of ulcers divided by 10.
2. Average number of ulcers per stomach.
3. Average severity of ulcers.
The ulcer index is the value that resulted from the sum of the above three values. […]

mice = experiment: toxicological bioassay; format: in vivo; conditions: five times the anti-inflammatory dose (50 mg/kg indomethacin mol equivalent); recorded 24 h post-administration
Protocol: Five times the anti-inflammatory dose was orally administrated. […]
5a, 5b, 5d, 5e) was determined utilizing the standard method in mice. Albino mice weighing 20–25 g were divided into 6 groups of 6 mice each. Administrations of the tested compounds dissolved in distilled water by the aid of few drops of Tween 80 were given intraperitoneally in 50 […]
inflammatory dosage). The control group was given water only with few drops of Tween 80. The toxic symptoms and mortality rates were recorded 24 h post -administration in each group.

TNF-α mRNA = conditions: 40 μg/mL; in comparison to LPS-stimulated cells only
Protocol: as §1, §2, §3, §4, §5, §6, §7, §8, §9, §10

[3] = test system: carrageenan induced paw edema; experiment: carrageenan-induced rat paw edema; format: in vivo; conditions: 10 mg/kg indomethacin mol equivalent i.p.; for Mean Edema Thickness: ± standard error
Protocol: Anti-inflammatory activity screening
The anti-inflammatory activity of the tested compounds was determined in-vivo by the acute carrageenan induced paw edema standard method in rats. Adult Wister rats of either sex (pregnant female animals were excluded) weighing 120–150 g were divided into 19 groups of 6 animals each. The tested compounds dissolved in DMSO, at a dose of 10 mg kg-1 (rat body […]
inflammation. The control group was given DMSO only. Paw edema was induced by subcutaneous injection of freshly prepared 1% solution of carrageenan in saline (0.9%, 0.1 ml per rat) into subplantar tissue of the right hind paw of rats. The thickness of the paw was measured (in mm) after successive time intervals (1, 2, 3, 4 and 24 h) and compared with the initial hind paw thickness of each rat for determining the edema thickness. Data were collected, checked, revised and analyzed (SPSS 16). Quantitative variables from normal distribution were expressed as means ± SE “standard error”. The anti-inflammatory activity was expressed as percentage inhibition of edema thickness in treated animals in comparison with the control group according to eqn. (1) […]
% Inhibition of edema= Vc-Vt x 100 … .. (1)
Where, Vc and Vt are the means of edema paw thickness for the control and tested compound treated animal groups, respectively.
The potency of the tested compounds was expressed as % inhibition of edema thickness […]
% Potency = % inhibition of edema for the tested compound treated group x 100 … . (2)

CC(C)Cc1ccc(C(C)C(=O)OCc2cn(-c3ccccc3Cl)nn2)cc1 (stereo not drawn) [Compound 5a, (1-(2-Chlorophenyl)-1H-1,2,3-triazol-4-yl)methyl 2-(4-isobutylphenyl)propanoate]
reduction in IL-6 mRNA levels (IL-6 mRNA): 61.3%
LPS-stimulated NO production (nitrite) [1]: 17.7 µM
% Protection (hot plate latency; after 30 min): 79.2%
Latency Period ± SE (hot plate latency; after 30 min): 11.97 ± 2.5 s
% Protection (hot plate latency; after 60 min): 71.5%
Latency Period ± SE (hot plate latency; after 60 min): 12.47 ± 2.0 s
% Protection (hot plate latency; after 90 min): 34.5%
Latency Period ± SE (hot plate latency; after 90 min): 11.98 ± 2.6 s
% Protection (hot plate latency; after 120 min): 54.5%
Latency Period ± SE (hot plate latency; after 120 min): 13.92 ± 2.3 s
% Inhibition/Protection [2]: 83.3%
Writing Reflex ± SE ([2]; number of writhing counted for 30 min): 6.7 ± 0.7
reduction in iNOS mRNA levels (iNOS mRNA): 34%
Ulcer Index (gastric mucosa): 0
% Incidence of Ulcer Divided by 10 (gastric mucosa; po, 10 mg/kg): 0
Average Severity of Ulcer (gastric mucosa; po, 10 mg/kg): 0
Average of Ulcer Number (gastric mucosa; po, 10 mg/kg): 0
Number of Animals with Ulcer (gastric mucosa; po, 10 mg/kg): 0
toxic symptoms or mortality (mice): No toxic symptoms or mortality
reduction in TNF-α mRNA levels (TNF-α mRNA): 88%
% Inhibition of Edema ± Standard Error ([3]; 1 h): 29.7 ± 1.1%
% Inhibition of Edema ± Standard Error ([3]; 2 h): 31.3 ± 0.8%
% Inhibition of Edema ± Standard Error ([3]; 3 h, 10 mg/kg): 95.4% and 95.4 ± 0.7%
Mean Edema Thickness ([3]; 3 h): 0.033 ± 0.01 mm
% Inhibition of Edema ± Standard Error ([3]; 4 h): 45.7 ± 1.4%
% Inhibition of Edema ± Standard Error ([3]; 24 h, 10 mg/kg): 22.5% and 22.5 ± 0.9%
Mean Edema Thickness ([3]; 24 h): 0.713 ± 0.02 mm
